Read-outs that look alike come from different tables or passages of the source. Blank lines part the entries; values can stand above or below the molecule they belong to.
What was measured:
bcl-2 = assay: Bcl-2 expression and phosphorylation assay (Western blot mobility shift); type: cell-based; details: for bcl-2 phosphorylation: immunoblotting, slower migrating band vs vehicle control, cell line not stated
Protocol: Analysis of bcl-2 protein expression was performed using a Western blot assay as previously described (Haldar, S. et al. 1996. Cancer Res. 56:1253; Haldar, S. et al. 1995. Proc. Natl. Acad. Sci. USA 92:4507-4511). Protein identification was made using a monoclonal bcl-2 primary antibody (DAKO Corporation) and secondary goat anti-mouse horseradish peroxidase conjugated antibody (Bio-Rad Laboratories, Richmond, CA). The phosphorylation of bcl-2 was determined by mobility shifts in the Western bolt as described by Haldar (Haldar, S. et al. 1996. Cancer Res. 56:1253; Haldar, S. et al. 1995. Proc. Natl. Acad. Sci. USA 92:4507-4511).

MCF-7 cells = tested on: MCF-7 cells
Protocol: The Apoalert Annexin V-EGFP method (CLONTECH, Palo Alto, Calif.) was used to assess for apoptosis. Briefly, tumor cells were treated for 2 hours and cells were washed with fixing solution and stained with Annexin V-EGFP and propidium iodide for 15 minutes in the dark. Cells were viewed using a Nikin Eclipse TE-200 (Nikon Corporation, Tokyo, Japan) inverted fluorescent microscope. Photographs were captured using a SPOT digital camera (Diagnostic, Inc., Sterling Heights, Mich.) in combination with SPOT […] (Pharmingen, San Diego, Calif.). Cells (1×10^6 per dish) were treated for 12 hours, washed with PBS, and fixed in 1% paraformaldehyde in ice for 30 minutes. After fixation, cells were washed twice with PBS and fixed in 70% ethanol. The pellets were washed and resuspended in 50 μl of the DNA labeling solution containing Br-dUTP and TdT enzyme and incubated for 60 minutes at 37° C. After incubation, the pellets were washed, incubated with FITC labeled anti-BrdU antibody in the dark for 30 minutes at room temperature, and stained with propidium iodide and RNase. The stained cells were analyzed by flow cytometry after 30 minutes. Cell viability was assessed by the tetrazolium dye method as previously described (Scudiero, D.A. et al. 1988. Cancer Res. 48:4827-4833).

microtubule structure [1] = assay: Microtubule assay (indirect immunofluorescence); type: cell-based
Protocol: Microtubule structure was assessed by indirect immunofluorescence as previously described (Zhang, C. C. et al. 1998. Oncogene 16:1617-1624). Cells were grown on coverslips and fixed in ice-cold methanol at −20° C. after drug treatment. The cells were then incubated with a 1:100 dilution of monoclonal anti-alpha-tubulin antibody (Clone DM 1A, mouse ascites fluid; Sigma) in 3% BSA in PBS for 30 minutes and washed in 3% BSA in PBS for 10 minutes. This was followed by incubation with FITC-goat anti-mouse IgG (1:50 dilution) as a secondary antibody for 30 minutes and washed in 3% BSA/PBS and visualized under a epifluorescent microscope (Zeiss AXIOSKOP) using a plan-NEOFLUAR 100 X oil immersion objective. The photographs were captured on a cooled CCD camera (DAGE-MTI) using Scion Image.

MCF-7 tumor cells = assay: Cell cycle analysis by flow cytometry; type: cell-based
Protocol: Cells were treated for 24 hours, incubated with 10 μM BrdU for 45 minutes at 37° C. Cells were then washed with ice-cold PBS, resuspended in 200 μl PBS and fixed with cold 70% ethanol. The cells were resuspended, incubated for 30 minutes in 2 N HCl/0.5% Triton X-100 in PBS, and neutralized by rinsing once in 0.1 M sodium tetraborate (pH 8.5). Fluorescein isothiocyanate (FITC)-conjugated anti-BrdU antibody (Becton Dickinson) was added (10 μg/sample) in 50 μl of 0.5% Tween 20/1% BSA in PBS and incubated for 30 minutes. The cells were washed and resuspended in 1 ml of PBS containing 5 μg/ml propidium iodide. Fluorescence intensity was determined by quantitative flow cytometry and profiles were generated on a Becton Dickinson FACScan. A minimum of 10,000 cells were analyzed.

microtubule structure [2] = details: stated as 'has been shown'; cited from earlier work

SMILES: O=C(CC(O)c1ccc(O)cc1)c1ccc(O[C@@H]2O[C@H](CO)[C@@H](O)[C@H](O)[C@H]2O)cc1O (single isomer, unassigned; peak 2) [peak 2, 1-propanone-1-(2,4-dihydroxyphenyl-4′-o-beta-D-glucopyranoside)-3-hydroxy-3-(4′-hydroxyphenyl)]
bcl-2 phosphorylation (bcl-2): induce bcl-2 phosphorylation

IC50 (MCF-7 cells; read-out: IC50, decrease of cell viability, 72 hours): 13 µM
SMILES: O=C(CC(O)c1ccc(O)cc1)c1ccc(O)cc1O (stereo not shown) [DC, 1-propanone-1-(2,4-dihydroxyphenyl)-3-hydroxy-3-(4′-hydroxyphenyl)]
phosphorylation of bcl-2 (bcl-2; DUPro-1 tumor cells): induce phosphorylation of bcl-2
phosphorylation of bcl-2 (bcl-2; MCF-7 tumor cells): induce phosphorylation of bcl-2
bcl-2 phosphorylation (bcl-2): induce bcl-2 phosphorylation
apoptosis (extracellular phosphatidylserine detection) (MCF-7 cells; similar to 10 μM camptothecin control): induced apoptosis
effect on microtubule structure (microtubule structure [1]): induce microtubule fragmentation
G2/M cell cycle arrest (MCF-7 tumor cells): induced a G2/M cell cycle arrest

SMILES: O=C(CC(O)c1ccc(O[C@@H]2O[C@H](CO)[C@@H](O)[C@H](O)[C@H]2O)cc1)c1ccc(O)cc1O (single isomer, unassigned; peak 1) [peak 1, 1-propanone-1-(2,4-dihydroxyphenyl)-3-hydroxy-3-(4′-hydroxyphenyl-4′o-beta-D-glucapyranoside)]
bcl-2 phosphorylation (bcl-2): induce bcl-2 phosphorylation

SMILES: CC(=O)O[C@H]1C(=O)[C@@]2(C)[C@H]([C@H](OC(=O)c3ccccc3)[C@]3(O)C[C@H](OC(=O)[C@H](O)[C@@H](NC(=O)c4ccccc4)c4ccccc4)C(C)=C1C3(C)C)[C@]1(OC(C)=O)CO[C@@H]1C[C@@H]2O [paclitaxel]
effect on microtubule structure (microtubule structure [2]): induce microtubule bundles
